Laboratory results: patent publication US8663912B2, “Fluorogenic substrate for ADAMTS13” (Washington University, priority 2011, dated 2014)
Values joined by “and” are separate entries in the source; they are usually repeats but may differ in a detail not shown here. Identical values can stand only once. * marks the point of attachment. X1 = CC1(C)C(/C=C/C2=C(Cl)C(=C/C=C3/N(CCCCCC(=O)*)c4ccc5cc(S(=O)(=O)O)ccc5c4C3(C)C)/CCC2)=[N+](CCCS(=O)(=O)[O-])c2ccc(N(CCCS(=O)(=O)O)CCCS(=O)(=O)O)cc21; X2 = CC(C)(C)c1cc(/C=C/C=C2\N(CCCS(=O)(=O)O)c3ccc(S(=O)(=O)O)cc3C2(C)CCCC(=O)CCN2C(=O)CC(*)C2=O)c2ccc(N(CCCS(=O)(=O)[O-])CCCS(=O)(=O)O)cc2[o+]1

What was measured:
[1] = molecular target: T1, ADAMTS13 (Homo sapiens, UniProt Q76LX8); assay: Fluorogenic ADAMTS13 activity assay, signal and sensitivity compared between substrates; type: biochemical; design: from tissue; host or cells: human plasma (TTP patients, healthy controls)
T1 sequence (Q76LX8 75-1427): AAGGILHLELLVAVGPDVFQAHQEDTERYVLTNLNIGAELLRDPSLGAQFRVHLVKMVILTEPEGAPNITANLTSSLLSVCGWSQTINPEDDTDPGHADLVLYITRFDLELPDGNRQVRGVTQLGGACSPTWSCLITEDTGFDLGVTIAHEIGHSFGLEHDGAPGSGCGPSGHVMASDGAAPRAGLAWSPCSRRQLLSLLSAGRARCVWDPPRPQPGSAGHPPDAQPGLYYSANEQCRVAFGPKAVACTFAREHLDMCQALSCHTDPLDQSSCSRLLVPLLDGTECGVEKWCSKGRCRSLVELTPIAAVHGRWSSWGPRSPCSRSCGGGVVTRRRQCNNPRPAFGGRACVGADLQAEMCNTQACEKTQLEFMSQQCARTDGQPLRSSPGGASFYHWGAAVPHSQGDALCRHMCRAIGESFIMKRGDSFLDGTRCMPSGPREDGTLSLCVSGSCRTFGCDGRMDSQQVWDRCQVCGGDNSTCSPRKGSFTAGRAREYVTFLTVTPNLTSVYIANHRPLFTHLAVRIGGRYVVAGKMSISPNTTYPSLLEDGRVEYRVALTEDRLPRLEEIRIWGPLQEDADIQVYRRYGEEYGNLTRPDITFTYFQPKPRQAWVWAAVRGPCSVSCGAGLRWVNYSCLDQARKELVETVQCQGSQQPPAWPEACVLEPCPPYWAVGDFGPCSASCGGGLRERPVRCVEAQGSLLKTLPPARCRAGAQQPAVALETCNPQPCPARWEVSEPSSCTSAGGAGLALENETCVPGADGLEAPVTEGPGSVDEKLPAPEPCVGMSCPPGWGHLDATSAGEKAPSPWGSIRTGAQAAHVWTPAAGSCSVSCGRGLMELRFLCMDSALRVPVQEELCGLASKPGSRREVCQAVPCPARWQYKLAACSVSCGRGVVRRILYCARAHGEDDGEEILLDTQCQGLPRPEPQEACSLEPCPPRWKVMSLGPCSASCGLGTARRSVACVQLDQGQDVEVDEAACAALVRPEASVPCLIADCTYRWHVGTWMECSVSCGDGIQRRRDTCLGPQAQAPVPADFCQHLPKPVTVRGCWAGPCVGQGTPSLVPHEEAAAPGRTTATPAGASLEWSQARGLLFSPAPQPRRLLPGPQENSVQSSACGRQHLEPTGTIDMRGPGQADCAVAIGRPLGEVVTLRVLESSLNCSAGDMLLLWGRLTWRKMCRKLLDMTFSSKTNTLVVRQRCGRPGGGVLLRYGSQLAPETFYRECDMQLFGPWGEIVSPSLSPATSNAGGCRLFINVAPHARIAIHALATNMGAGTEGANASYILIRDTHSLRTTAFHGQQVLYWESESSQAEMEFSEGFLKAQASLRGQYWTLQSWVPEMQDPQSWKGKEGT
Method: In these experiments, the FRETS-rVWF71 substrate was utilized in a microtiter format (FIG. 2), which is compatible with fluorescence plate readers that are supported by laboratory equipment suppliers and available in many clinical hemostasis laboratories, such as the BIO-TEK FLx800 Fluorometer from DiaPharma (West Chester, Ohio) or Technoclone (Vienna). Reactions were performed in 200 μL 5 mM Bis-Tris, pH 6, 25 mM CaCl2, at room temperature with added plasma as shown (FIG. 2). Fluorescence was monitored in a Victor^2 V microplate reader (Perkin Elmer Life Sciences, Boston, Mass.) with 638 nm excitation filter and 658 nm emission filter.
Using 1 μM substrate with varying amounts of plasma or serum and optimal filters for each substrate, ΔF/min for VWF-rFRETS71 is 8-fold greater compared to VWF-FRETS73. In addition, assays with VWF-rFRETS71 are linear with time and linear with enzyme up to >95% serum or plasma added, with no significant background fluorescence or interference from blood constituents. The combination of stronger fluorescence signal and compatibility with undiluted plasma make FRETS-rVWF71 ˜250-fold more sensitive than FRETS-VWF73.
Assays were performed at 30° C. Samples (100 μL) of plasma or serum, diluted as necessary in assay buffer, were pipetted in duplicate in 96 well white microplates (Optiplate-96, PerkinElmer, Waltham, Mass.). Reaction was initiated by addition of 100 μL substrate in assay buffer. Cleavage of FRETS-rVWF71 was detected as an increase in fluorescence compared to control reactions without added enzyme at 2 min intervals using a Victor^2V Multilabel Counter (PerkinElmer, Waltham, Mass.) or Synergy H1 Hybrid Multi-Mode Microplate Reader (Biotek, Winooski, Vt.) equipped with 635±10 nm excitation and 660±10 nm emission filters. Initial velocities were determined by fitting progress curves to the polynomial ΔF=A+Bt+Ct^2, where ΔF is the change in fluorescence, t is time, A is the y-intercept, B is the initial velocity (slope), and the term Ct^2 accounts for any decline in velocity due to substrate consumption or photobleaching.
ADAMTS13 assays with the FRETS-VWF73 substrate (Kokame, K., et al. Br. J. Haematol. 129:93-100, 2005) (Peptide International, Louisville, Ky.) were performed according to the manufacturer's instructions. Hemoglobin was prepared by hypotonic lysis of red blood cells from a voluntary donor and quantified with Drabkin's reagent (Sigma, St. Louis, Mo.).
Results with FRETS-rVWF71 and FRETS-VWF73 assayed under standard conditions (Kokame, K., et al. Br. J. Haematol. 129:93-100, 2005) correlated well with an inter-assay CV of 3.8%. Using 1 μM substrate and 5 μL PNP, the change in fluorescence (ΔF/min) for FRETS-rVWF71 (50 mM HEPES, pH 7.4, 150 mM NaCl) was 8-fold greater than for FRETS-VWF73 (5 mM Bis-Tris, pH 6).

[2] = molecular target: T1, ADAMTS13; assay: Effect of bilirubin and hemoglobin on FRETS-rVWF71 ADAMTS13 assays; type: biochemical; design: FRETS-rVWF71 cleavage by plasma ADAMTS13 (50 μL) was assessed in 200 μL reactions; from tissue; host or cells: human plasma or serum (pooled normal plasma, healthy donors, TTP patients); conditions: >20 mg/dL (250 μM) conjugated bilirubin

X1-GQAPNLVYMVTGC(X2)PASDEIRRLPGDIQVVPIGVGPNANVQELERIGWPNAPILIQDFETLPREAPDLVLQR [FRETS-rVWF71]
change in fluorescence (ΔF/min) greater than for FRETS-VWF73 ([1]; 1 μM substrate, 5 μL PNP, FRETS-rVWF71 in 50 mM HEPES pH 7.4, 150 mM NaCl, FRETS-VWF73 in 5 mM Bis-Tris pH 6): 8 fold | ΔF/min greater compared to FRETS-VWF73 ([1]; 1 μM substrate, varying amounts of plasma or serum, optimal filters for each substrate): 8 fold | assay sensitivity relative to FRETS-VWF73 ([1]; equal concentrations of plasma as the enzyme source): approximately 8 fold | overall sensitivity relative to FRETS-VWF73 ([1]; stronger fluorescence signal combined with undiluted plasma): ~250 fold and 240 fold | further increase of sensitivity relative to FRETS-VWF73 ([1]; use in undiluted plasma): 30 fold | sensitivity of assay to conjugated bilirubin [2]: insensitive
